The results in this text go back to PubChem BioAssay (NCI).

Holding throughout (test): DTP human tumour cell line panel, 48 h
Assay [1] relates to IGROV1 ovarian.
In assay [2] the test system is MALME-3M melanoma.
Assay [3] concerns NCI-H522 lung.
Assay [4] has as its system SF-295 CNS.
Assay [5] relates to SK-OV-3 ovarian.
Assay [6] concerns SN12C renal.
In assay [7] the test system is SW-620 colon.
For assay [8], the system named is SF-268 CNS.
Assay [9] has as its system PC-3 prostate.

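Five concentrations, 48 hours, 96-well plates. GI50 is the concentration that inhibits growth by half. TGI: total growth inhibition.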

Take `C1=CCCC=CCC1.C[PH+](C)C.C[PH+](C)C.C[PH+](C)C.[Cl-].[Ir]`: the GI50 in [1] is 36.3 µM; in assay [2] it was 22.9 µM; in assay [3], 26.4 µM; in assay [4], over 100 µM; in assay [5], over 100 µM; in assay [6], 82.6 µM. Moreover, the GI50 in assay [7] was 36.4 µM. Also, the TGI in [1] is over 100 µM; in assay [2] it was 61.5 µM; in [3] it was 60.1 µM; in [4], over 100 µM; in assay [5], over 100 µM; in assay [6], over 100 µM. Also, in assay [7], the TGI is over 100 µM.

As for `O=C1Nc2cc(F)ccc2C1=O`, the TGI in [1], in assay [2], in [3], in [8], in assay [4] and in [5] was over 100 µM throughout. Further, the TGI in [6] and in [7] was over 100 µM in each case.

In the case of `O=C1N=C(Nc2nc(-c3csc(NC4=NC(=O)/C(=C\c5ccccc5)S4)n3)cs2)S/C1=C/c1ccccc1`, the GI50 was 36.6 µM in assay [1]; 38.5 µM in assay [3]; 8.98 µM in [9]; 16.6 µM in assay [8]; 16.6 µM in [4]; 5.64 µM in [6]. In addition, the GI50 in assay [7] was 31.7 µM. For the same compound, the TGI is over 50 µM in assay [1]; over 50 µM in assay [3]; 42.7 µM in [9]; over 50 µM in [8]; over 50 µM in assay [4]; 20.6 µM in [6]. For the same compound, the TGI in assay [7] was over 50 µM.

`COc1ccc(-c2cc(=O)c3c(O)c(OC)c(OC)c(OC)c3o2)cc1`: the TGI in assay [1], in assay [2], in assay [3], in assay [9], in assay [8] and in [4] was over 100 µM in each case. For the same compound, the TGI in assay [5], in assay [6] and in assay [7] was over 100 µM each time.

As to `CC1(C)CCC[C@]2(C)c3ccccc3C(=O)CC12` (some centres undefined), the GI50 was 45.3 µM in [1]; 29 µM in [2]; 27.7 µM in assay [3]; 42 µM in assay [9]; 34.3 µM in [8]; 40.7 µM in assay [4]. In addition, the GI50 is over 100 µM in [5], 44.9 µM in [6] and 31 µM in assay [7]. In addition, the TGI in assay [1] is over 100 µM; in assay [2], over 100 µM; in assay [3], 76.1 µM; in assay [9], over 100 µM; in assay [8] it was over 100 µM; in assay [4], over 100 µM. Moreover, the TGI in assay [5], in assay [6] and in assay [7] was over 100 µM each time.

Consider `Nc1c2ccccc2nc2c(C(=O)Nc3ccc(S(N)(=O)=O)cc3)cccc12`, for which the TGI in assay [1], in assay [2], in [3], in assay [8], in assay [4] and in [5] was over 100 µM in each case. In addition, the concentration for total growth inhibition (TGI) in assay [6] and in assay [7] was over 100 µM in each case.

Regarding `CC(=O)[O-].N.N.N.N.[Co+3].[O-][Cl+3]([O-])([O-])[O-].[OH3+]`, the GI50 is over 100 µM in [1]; over 100 µM in assay [2]; 49.5 µM in assay [3]; over 100 µM in assay [8]; over 100 µM in assay [4]; over 100 µM in assay [5]. Further, the GI50 in assay [6] and in assay [7] was over 100 µM throughout. The concentration for total growth inhibition (TGI) in assay [1], in assay [2], in [3], in assay [8], in assay [4] and in assay [5] was over 100 µM throughout. Moreover, the TGI in assay [6] and in assay [7] was over 100 µM each time.

Turning to `O=C1NC2C(O)CCCCC2C12CCCCC2` (centres undefined), the TGI in assay [1], in [2], in assay [3], in assay [8], in assay [4] and in assay [5] was over 100 µM throughout. Besides, the TGI in [6] and in assay [7] was over 100 µM throughout.

`NC(=O)c1ccc(Cl)c([N+](=O)[O-])c1`: the TGI in assay [1], in assay [2], in assay [3], in assay [8], in assay [4] and in assay [5] was over 100 µM throughout. The total growth inhibition concentration (TGI) in [6] and in [7] was over 100 µM in each case.

As to `c1ccc(OC2=NC3=S(S2)SC(Oc2ccccc2)=N3)cc1`, the TGI stood at 44.7 µM in assay [1]; 41.7 µM in assay [2]; 36.1 µM in [3]; 57.6 µM in assay [8]; 39 µM in assay [4]; 65.2 µM in [5]. The figures for the TGI in assay [6] and in [7] were 40.8 µM and 35.2 µM, respectively.

For the compound `CCn1c2ccccc2c2cc(C(=O)c3ccc(C)c4ccccc34)ccc21`, the GI50 in assay [1] is 0.635 µM; in [2] it was 0.5 µM; in assay [9], 0.392 µM; in [8] it was 0.877 µM; in [4], 0.273 µM; in assay [5], 0.553 µM. The GI50 was 2.44 µM in assay [6] and 0.352 µM in assay [7]. Moreover, the TGI in assay [1] is over 100 µM; in assay [2] it was over 100 µM; in assay [9], over 100 µM; in assay [8] it was over 100 µM; in assay [4], 0.936 µM; in assay [5], over 100 µM. The TGI in assay [6] and in [7] was over 100 µM throughout.

Regarding `COC(=O)N/N=C(\C)CC(=O)Nc1ccc(Cl)cc1`, the TGI in assay [1], in assay [2], in assay [3], in [8], in assay [4] and in assay [5] was over 100 µM in each case. This compound also registered a TGI in assay [7] of over 100 µM.
